Assay results from the NIST ThermoML archive (doi:10.1016/j.tca.2015.09.001).

Assay: molar heat capacity at constant pressure
Conditions: 101.33 kPa, Crystal, Small sample (50 mg) DSC

c12c3c4c5c1c1c6c7c2c2c8c3c3c9c4c4c%10c5c5c1c1c6c6c%11c7c2c2c7c8c3c3c8c9c4c4c9c%10c5c5c1c1c6c6c%11c2c2c7c3c3c8c4c4c9c5c1c1c6c2c3c41 [buckminsterfullerene]
Conditions | molar heat capacity at constant pressure [J/K/mol]
298.15 K | 535.8
300 K | 538.6
350 K | 648.1
400 K | 742
450 K | 830.1
500 K | 917.4
